Measurements from ChEMBL document CHEMBL1142734, “Biological properties of D- and L-1-deoxyazasugars” (J Med Chem, 2005).

How the values were obtained:
[1] = molecular target: T1, Lysosomal alpha-mannosidase (Homo sapiens) (UniProt O00754); experiment: Percent inhibition of human alpha-mannosidase at 1000 uM
T1 sequence (whole entry): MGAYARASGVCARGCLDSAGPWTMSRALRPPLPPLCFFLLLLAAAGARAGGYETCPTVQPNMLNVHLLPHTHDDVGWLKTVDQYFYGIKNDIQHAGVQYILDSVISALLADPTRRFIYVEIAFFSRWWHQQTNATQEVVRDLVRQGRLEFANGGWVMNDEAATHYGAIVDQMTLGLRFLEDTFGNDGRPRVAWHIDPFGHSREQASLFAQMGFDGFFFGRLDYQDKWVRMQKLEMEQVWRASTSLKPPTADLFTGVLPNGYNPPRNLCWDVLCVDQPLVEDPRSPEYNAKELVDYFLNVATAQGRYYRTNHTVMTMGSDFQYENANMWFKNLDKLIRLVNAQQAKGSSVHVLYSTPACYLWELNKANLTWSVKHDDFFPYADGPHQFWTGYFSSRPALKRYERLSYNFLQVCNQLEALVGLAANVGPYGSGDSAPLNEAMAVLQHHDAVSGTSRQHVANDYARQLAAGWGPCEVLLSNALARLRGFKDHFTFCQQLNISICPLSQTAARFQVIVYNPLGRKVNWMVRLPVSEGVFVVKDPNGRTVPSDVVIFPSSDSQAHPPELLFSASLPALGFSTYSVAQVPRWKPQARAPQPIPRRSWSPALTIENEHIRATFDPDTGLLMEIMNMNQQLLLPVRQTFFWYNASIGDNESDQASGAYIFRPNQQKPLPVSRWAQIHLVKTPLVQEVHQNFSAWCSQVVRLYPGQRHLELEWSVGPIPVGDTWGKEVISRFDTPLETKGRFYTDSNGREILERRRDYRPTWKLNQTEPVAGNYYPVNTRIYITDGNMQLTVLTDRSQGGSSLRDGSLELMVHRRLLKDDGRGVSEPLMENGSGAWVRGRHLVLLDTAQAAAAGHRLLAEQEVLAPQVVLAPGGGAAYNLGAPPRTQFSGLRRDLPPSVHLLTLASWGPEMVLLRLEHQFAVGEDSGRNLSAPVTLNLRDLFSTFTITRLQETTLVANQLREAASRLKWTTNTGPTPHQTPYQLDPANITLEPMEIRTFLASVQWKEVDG

[2] = molecular target: T2, Beta-mannosidase (Homo sapiens) (UniProt O00462); experiment: Percent inhibition of human beta-mannosidase at 1000 uM
T2 sequence (whole entry): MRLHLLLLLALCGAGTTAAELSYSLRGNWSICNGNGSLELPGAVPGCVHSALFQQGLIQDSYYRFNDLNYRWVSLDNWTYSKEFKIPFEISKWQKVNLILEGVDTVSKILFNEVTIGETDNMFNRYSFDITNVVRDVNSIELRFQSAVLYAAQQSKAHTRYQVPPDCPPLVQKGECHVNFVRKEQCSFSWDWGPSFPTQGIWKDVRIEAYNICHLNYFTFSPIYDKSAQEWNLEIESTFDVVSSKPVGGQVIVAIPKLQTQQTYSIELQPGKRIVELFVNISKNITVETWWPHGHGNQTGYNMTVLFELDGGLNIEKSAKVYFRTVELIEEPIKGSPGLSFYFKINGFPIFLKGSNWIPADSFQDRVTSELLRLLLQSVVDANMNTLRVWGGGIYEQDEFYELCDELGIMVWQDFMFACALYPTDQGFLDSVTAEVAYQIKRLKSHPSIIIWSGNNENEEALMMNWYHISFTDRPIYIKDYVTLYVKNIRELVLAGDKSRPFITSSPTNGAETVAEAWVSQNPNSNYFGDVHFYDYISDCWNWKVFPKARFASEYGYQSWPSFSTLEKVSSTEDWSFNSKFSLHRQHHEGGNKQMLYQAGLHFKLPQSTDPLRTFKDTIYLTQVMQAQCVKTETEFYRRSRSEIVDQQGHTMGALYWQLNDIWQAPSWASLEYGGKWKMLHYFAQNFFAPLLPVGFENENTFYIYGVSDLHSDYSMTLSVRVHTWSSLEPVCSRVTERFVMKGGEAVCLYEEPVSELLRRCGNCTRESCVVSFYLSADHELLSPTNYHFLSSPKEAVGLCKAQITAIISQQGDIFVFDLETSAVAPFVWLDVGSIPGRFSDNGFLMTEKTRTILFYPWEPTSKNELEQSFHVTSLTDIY

[3] = molecular target: T3, Cytosolic beta-glucosidase (Homo sapiens) (UniProt Q9H227); conditions: 1000 uM
T3 sequence (whole entry): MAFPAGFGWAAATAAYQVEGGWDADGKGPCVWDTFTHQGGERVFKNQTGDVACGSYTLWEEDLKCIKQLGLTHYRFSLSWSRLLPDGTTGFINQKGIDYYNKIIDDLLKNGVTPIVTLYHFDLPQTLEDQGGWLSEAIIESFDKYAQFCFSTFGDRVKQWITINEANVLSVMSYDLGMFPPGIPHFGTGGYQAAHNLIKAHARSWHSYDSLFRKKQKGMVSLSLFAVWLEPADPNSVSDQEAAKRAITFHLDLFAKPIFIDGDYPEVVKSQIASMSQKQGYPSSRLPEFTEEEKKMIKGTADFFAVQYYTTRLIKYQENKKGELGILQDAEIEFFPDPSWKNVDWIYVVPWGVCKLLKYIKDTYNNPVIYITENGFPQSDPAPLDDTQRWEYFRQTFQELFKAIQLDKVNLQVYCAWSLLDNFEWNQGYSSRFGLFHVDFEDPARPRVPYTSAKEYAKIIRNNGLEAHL

[4] = molecular target: T4, Beta-galactosidase (Bos taurus) (UniProt Q58D55); experiment: Percent inhibition of beta-galactosidase of bovine liver at 1000 uM
T4 sequence (whole entry): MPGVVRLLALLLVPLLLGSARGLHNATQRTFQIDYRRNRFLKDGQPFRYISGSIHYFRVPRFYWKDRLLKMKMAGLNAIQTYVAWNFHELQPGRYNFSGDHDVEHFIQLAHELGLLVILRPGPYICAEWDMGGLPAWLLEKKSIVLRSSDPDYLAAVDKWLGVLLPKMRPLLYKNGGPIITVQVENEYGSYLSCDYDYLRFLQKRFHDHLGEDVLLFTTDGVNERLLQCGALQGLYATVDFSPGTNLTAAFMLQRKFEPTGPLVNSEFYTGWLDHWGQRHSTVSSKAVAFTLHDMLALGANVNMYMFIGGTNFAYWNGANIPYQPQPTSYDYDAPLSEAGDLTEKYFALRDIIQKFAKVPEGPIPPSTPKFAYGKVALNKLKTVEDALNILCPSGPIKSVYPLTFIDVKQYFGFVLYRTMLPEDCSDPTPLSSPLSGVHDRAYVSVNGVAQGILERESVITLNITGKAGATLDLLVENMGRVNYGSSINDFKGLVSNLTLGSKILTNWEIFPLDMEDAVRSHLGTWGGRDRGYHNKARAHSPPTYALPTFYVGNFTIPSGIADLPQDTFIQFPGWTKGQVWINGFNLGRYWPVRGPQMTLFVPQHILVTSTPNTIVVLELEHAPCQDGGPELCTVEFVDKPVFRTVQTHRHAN

[5] = Inhibitory concentration against alpha-galactosidase of coffee bean; parameters: species or system Coffea arabica

Q: For `OC[C@@H]1NC[C@@H](O)[C@H](O)[C@H]1O`, which inhibition [1] is on record?
A: Its inhibition is under 50%.

Q: What about the inhibition [2] of the same compound?
A: Its inhibition is under 50%.

Q: And the inhibition [3]?
A: The inhibition was under 50%.

Q: With `OC[C@H]1NC[C@H](O)[C@@H](O)[C@H]1O` as the compound, how does the inhibition [1] read?
A: Its inhibition is under 50%.

Q: And the inhibition [4]?
A: The inhibition was under 50%.

Q: And the inhibition [2]?
A: Its inhibition is under 50%.

Q: And the IC50 [5]?
A: The IC50 was 0.003 µM.

Q: What about the inhibition [3] of the same compound?
A: Its inhibition is under 50%.

Q: Which results are given for `OC[C@@H]1NC[C@H](O)[C@@H](O)[C@@H]1O`?
A: inhibition [1]: < 50%; inhibition [4]: < 50%; inhibition [2]: < 50%; inhibition [3]: < 50%

Q: What does the source list for `OC[C@@H]1NC[C@H](O)[C@H](O)[C@H]1O`?
A: inhibition [1]: < 50%; inhibition [4]: < 50%; inhibition [2]: < 50%; inhibition [3]: < 50%

Q: With `OC[C@H]1NC[C@H](O)[C@H](O)[C@@H]1O` as the compound, how does the inhibition [1] read?
A: Its inhibition is under 50%.

Q: And the inhibition [4]?
A: The inhibition was under 50%.

Q: And the inhibition [2]?
A: The inhibition was under 50%.

Q: What about the IC50 [5] of the same compound?
A: Its IC50 is 260 µM.

Q: And the inhibition [3]?
A: Its inhibition is under 50%.

Q: Which inhibition [1] does the source give for `OC[C@H]1NC[C@@H](O)[C@@H](O)[C@@H]1O` [DEOXYMANNOJIRIMYCIN] here?
A: Its inhibition is under 50%.

Q: And the inhibition [4]?
A: Its inhibition is under 50%.

Q: And the inhibition [2]?
A: Its inhibition is under 50%.

Q: What about the inhibition [3] of the same compound?
A: Its inhibition is under 50%.

Q: With `OC[C@@H]1NC[C@@H](O)[C@@H](O)[C@@H]1O` as the compound, how does the inhibition [1] read?
A: Its inhibition is under 50%.

Q: And the inhibition [4]?
A: The inhibition was under 50%.

Q: And the inhibition [2]?
A: The inhibition was under 50%.

Q: And the inhibition [3]?
A: Its inhibition is under 50%.

Q: Which inhibition [4] does the source give for `OC[C@@H]1NC[C@@H](O)[C@@H](O)[C@H]1O` here?
A: The inhibition was under 50%.

Q: And the inhibition [2]?
A: The inhibition was under 50%.

Q: And the IC50 [5]?
A: Its IC50 is 290 µM.

Q: What about the inhibition [3] of the same compound?
A: The inhibition was under 50%.

Q: With `OC[C@H]1NC[C@@H](O)[C@H](O)[C@H]1O` as the compound, how does the inhibition [1] read?
A: The inhibition was under 50%.

Q: What about the inhibition [2] of the same compound?
A: The inhibition was under 50%.

Q: And the IC50 [5]?
A: The IC50 was 67 µM.

Q: What does the source list for `OC[C@H]1NC[C@H](O)[C@@H](O)[C@@H]1O` [DUVOGLUSTAT]?
A: inhibition [1]: < 50%; inhibition [2]: < 50%; IC50 [5]: 880 µM

Q: Which inhibition [1] does the source give for `OC[C@@H]1NC[C@@H](O)[C@H](O)[C@@H]1O` here?
A: Its inhibition is under 50%.

Q: And the inhibition [2]?
A: The inhibition was under 50%.

Q: What about the IC50 [5] of the same compound?
A: The IC50 was 13 µM.

Q: And the inhibition [3]?
A: Its inhibition is under 50%.

Q: With `OC[C@H]1NC[C@H](O)[C@H](O)[C@H]1O` as the compound, how does the inhibition [1] read?
A: The inhibition was under 50%.

Q: And the inhibition [4]?
A: Its inhibition is under 50%.

Q: What about the inhibition [2] of the same compound?
A: Its inhibition is under 50%.

Q: And the IC50 [5]?
A: Its IC50 is 160 µM.

Q: And the inhibition [3]?
A: Its inhibition is under 50%.
